Source: patent US6201116A, “Halide indicators” (The Regents of the University of California, priority 1999, dated 2001)

Key:
[1] = Stopped-flow response to addition and removal of I^-; assay type: physicochemical
[2] = tested on: cells; assay: Toxicity in assays of cell growth; assay type: cell-based; settings: 2 mM in culture medium for 72 h
Protocol: (§1) LZQ and LMQ were loaded into cells efficiently by hypotonic shock or passive incubation. […] As was found for SPQ, LZQ and LMQ were non-toxic to cells in assays of cell growth (2 mM in culture medium for 72 h).

[3] = tested on: cells; assay: Cell loading and intracellular distribution (fluorescence/confocal microscopy); assay type: cell-based
Protocol: Fluorescence microscopy. Fluorescence microscopy measurements were performed as described previously (Chao et al., 1989). Briefly, coverglasses were mounted in a 0.5 ml perfusion chamber in which the cell-free glass surface made contact with an oil immersion objective (Nikon ×40 magnification, numerical aperture[NA] 1.3). Cell fluorescence was excited at 365±10 nm (SPQ) or 420 nm±10 nm (LZQ and LMQ). Emitted fluorescence was detected by a photomultiplier in a Nikon inverted epifluorescence microscope using a 410 nm dichroic mirror and 420 nm barrier filter (SPQ) or a 455 nm dichroic mirror and 500 nm barrier filter (LZQ). For cells colabeled with SPQ and LZQ, SPQ fluorescence was excited at 365±10 nm and detected using a 410 nm dichroic mirror and 455±30 nm interference filter. Confocal fluorescence micrographs were obtained using a Nipkow wheel confocal microscope and cooled CCD camera detector using a ×60 oil immersion objective (Nikon, NA 1.4). LZQ-labeled cells were viewed using a fluorescein filter set (excitation 480±15 nm, emission 520±20 nm).
Transport measurements. Cells were labeled with LZQ or SPQ by hypotonic shock (loading buffer/water 1:1 containing 2 mM LZQ or 7.5 mM SPQ) for 5 min at room temperature or by overnight incubation with indicators in the cell culture medium. Extracellular indicator was removed by washing just prior to measurements. For fluorescence microscopy, glass coverslips were then mounted in a perfusion chamber (flow ~2 ml/min) in which solutions were exchanged using a 4-way valve. For microplate reader measurements, cells in 96-well plates were bathed in […] of the `1st buffer` (see Table 3) and […] of the Cl^- -containing, I^- -free solution was injected into the well to drive Cl^- /I^- exchange (protocol 1). For stimulation of CFTR using protocol 2, […] of a 1:8 mixture of the 1st buffer and the 2nd buffer containing […] forskolin, 2 mM CPT-cAMP and […] IBMX was added.
as §1

[4] = In vitro fluorescence quenching by Cl^- (Stern-Volmer); assay type: physicochemical; settings: in water (or saline)
Protocol: Computations. In vitro fluorescence quenching studies were carried out at peak excitation and emission wavelengths. Microliter aliquots of the sodium salt of the quenching anion (1 M) were added to indicator solution in 5 mM sodium phosphate (pH 7.2, unless indicated otherwise). Fluorescence intensities in the absence (Fo) and presence (F) of quencher anion ([Q]) were measured to give the Stem-Volmer constant (Kq) as defined by: Fo /F=1+Kq [Q].

SMILES: [O-]c1nc2c(N[C@@H]3O[C@H](CO)[C@@H](O)[C@H]3O)ncnc2[n+]2ccccc12 [I, 4-(β-D-ribofuranosylamino)-pyrido [2,1-h] pteridin-11-ium-5-olate]
- response time to rapid addition and removal of I^- [1]: < 1 ms
- toxicity to cells (cell growth) [2]: non-toxic
- Cellular properties: staining/distribution ([3]; Table 4): staining uniform
- labeling of cytoplasm and nucleoplasm ([3]; all cell types tested: T84, Calu-3, JME, LLC-PK1, MDCK, 3T3 fibroblasts, CHO, HeLa): uniform labeling of the cytoplasm and nucleoplasm
- fluorescence intensity in cells vs. SPQ ([3]; confocal, substantially higher SPQ concentration used): remarkably more intense
- loading into cells ([3]; hypotonic shock or passive incubation): efficiently
- Stern-Volmer constant, Cl^- [4]: < 1 M⁻¹
